Consider four compounds from patent US4769483A, “Cycloalkyl-substituted 4-aminophenyl derivatives and process for their preparation” (Farmitalia Carlo Erba, S.p.A., priority 1985, dated 1988).

The term IC50 denotes the point on the concentration scale where inhibition reaches its midpoint. Lower therefore signals inhibition by little substance.

Assay [1] addresses T1, human placental aromatase (Homo sapiens, UniProt P11511).
T1 construct: the enzyme system was isolated from the microsomal fraction of human placental tissue; from tissue; host or cells: human placenta, microsomal fraction
T1 sequence (P11511 1-503): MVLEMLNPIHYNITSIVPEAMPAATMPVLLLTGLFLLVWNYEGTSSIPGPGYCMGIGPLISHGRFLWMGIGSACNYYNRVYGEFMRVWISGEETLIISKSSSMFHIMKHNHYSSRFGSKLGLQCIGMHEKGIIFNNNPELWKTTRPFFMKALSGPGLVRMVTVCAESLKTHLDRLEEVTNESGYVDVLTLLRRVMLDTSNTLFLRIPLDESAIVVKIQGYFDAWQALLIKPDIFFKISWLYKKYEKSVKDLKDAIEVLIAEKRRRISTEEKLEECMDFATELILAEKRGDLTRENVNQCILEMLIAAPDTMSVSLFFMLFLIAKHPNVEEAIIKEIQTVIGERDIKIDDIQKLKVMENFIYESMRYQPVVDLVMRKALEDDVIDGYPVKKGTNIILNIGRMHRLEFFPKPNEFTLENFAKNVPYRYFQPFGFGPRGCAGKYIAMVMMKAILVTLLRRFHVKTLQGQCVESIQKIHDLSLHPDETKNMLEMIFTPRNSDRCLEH
The assay can be described thus: Inhibition of human placental aromatase in vitro (3H2O release from 4-[1β,2β-3H]androstene-3,17-dione). Type of assay: biochemical. Particulars: for IC50: microsomal fraction of human placental tissue, 50 nM 4-[3H]androstenedione, 100 μM NADPH, 0.05 mg microsomal proteins, 37° C., pH 7.5, 15 minutes; for Relative potency: versus aminoglutethimide (= 1 by definition). On the procedure:
The assay of the aromatase inhibition in vitro was carried out as follows: the enzyme system was isolated from the microsomal fraction of human placental tissue according to standard procedure. […] All incubations were carried out in a shaking water bath at 37° C. in air in 10 mM potassium phosphate buffer, pH 7.5, which contained 100 mM KCl, 1 mM EDTA and 1 mM dithiothreitol.
The experiments were carried out in 1 ml incubation volume containing 50 nM 4-[^3 H]androstenedione, various concentrations of the inhibitors, 100 μM NADPH and 0.05 mg of microsomal proteins. After 15 minutes of incubation the reaction was stopped by the addition of choroform (5 ml).
After centrifugation at 1500 ×g for 5 minutes aliquots (0.5 ml) were removed from the water phase for determination of ^3 H2 O formed.

In a further assay the test system is aromatase. Particulars: literature reports; cited from earlier work.

Molecules are shown by their SMILES.

In assay [1], `Nc1ccc(C2CCCCC2)cc1` [4-cyclohexylaniline] yielded an IC50 of 1220 nM and a Relative potency of 1.7. Also, in the assay with aromatase, the “aromatase-inhibiting action (in words)” value is on record as “more or less selective aromatase-inhibiting action”.
As for `CCC1(c2ccncc2)CCC(=O)NC1=O` (centres unmarked) [4-pyridyl-3-ethyl-2,6-piperidinedione], the “aromatase-inhibiting action (in words)” value with aromatase is recorded as “more or less selective aromatase-inhibiting action”.
For the compound `C[C@@H](C(=O)OC1CCCCC1)c1ccc(N)cc1` [FCE 24328, cyclohexyl 2-(R)-2-(4'-aminophenyl)propionate], in assay [1], the IC50 is 100 nM and the Relative potency is given as 21.2.
For `C[C@@H](C(=O)NC1CCCCC1)c1ccc(N)cc1` [FCE 24786, N-cyclohexyl-2-(R)-2-(4'-aminophenyl)propanamide], in that order: 130 nM and 16.3.
